Test results reported in patent US20130096021A1, “RECURRENT GENE FUSIONS IN BREAST CANCER” (priority 2011, published 2013).

Key:
HCC1599 cells = assay: WST-1 cell proliferation assay with DAPT; assay type: cell-based, human; conditions: DAPT 0.3, 1, and 3 μM, six day time course
Description: (§1) For cell proliferation assays, cells were seeded into 96-well plates in triplicate and allowed to attach overnight before drug treatment. The γ-secretase inhibitor DAPT (EMD Biosciences) was added to the cultures the next day at concentrations of 0, 0.3, 1, and 3 μM. Relative cell numbers were measured by WST-1 assays at indicated time points following the manufacturer's instructions (Roche).
(§2) Notch fusion alleles provide a target for therapeutic intervention. The three characterized Notch fusions represent two functional classes. The first class, exemplified by the HCC2218 and HCC1599 fusions, produces a protein similar to that produced by the ADAM17/TACE catalyzed S2 cleavage, which occurs during ligand activation of the Notch pathway. The second class, exemplified by the HCC1187 fusion, produces a protein similar to the NICD produced after cleavage at S3 by γ-secretase. The first class requires cleavage at S3 site by γ-secretase to release NICD, and thus would be expected to be sensitive to γ-secretase inhibitors (GSIs). The second class would be unaffected by GSIs, as the fusion generates an ORF similar to NICD. To test this, stable Notch reporter cell lines were established from each of the three Notch fusion positive carcinoma lines by infection with a lentivirus carrying the Notch responsive promoter driving firefly luciferase. Each of the three cell lines was treated with the γ-secretase inhibitor DAPT 31, and luciferase activity was measured in cell lysates 24 hours later. […] A panel of six breast cell lines were treated with DAPT at 0, 0.3, 1, and 3 μM, and cell proliferation was measured using a WST-1 assay over a six day time course.

HCC2218 cells = assay: WST-1 cell proliferation assay with DAPT; assay type: cell-based, human; conditions: DAPT 0.3, 1, and 3 μM, six day time course
Description: as §1, §2

HCC1187 cells = assay: WST-1 cell proliferation assay with DAPT; assay type: cell-based, human; conditions: DAPT 0.3, 1, and 3 μM, six day time course
Description: as §1, §2

[1] = system: other breast cell lines not expressing Notch fusion alleles; assay: WST-1 cell proliferation assay with DAPT; assay type: cell-based, human; conditions: DAPT 0.3, 1, and 3 μM, six day time course
Description: as §1, §2

[2] = system: γ-secretase-cleaved NOTCH1 (NICD); assay: Western blot of NICD levels after DAPT treatment; assay type: cell-based, human
Description: For MAST2 fusion protein detection, cell pellets were sonicated in NP40 lysis buffer (50 mM Tris-HCl, 1% NP40, pH 7.4, Sigma), complete protease inhibitor mixture (Roche) and phosphatase inhibitor (EMD bioscience) Immunoblot analysis for MAST2 was carried out using MAST2 antibody from Novus Biologicals. Human β-actin antibody (Sigma) was used as a loading control. For NOTCH1 protein detection, cells were lysed in RIPA buffer containing protease inhibitor cocktail (Pierce). Proteins were separated by SDS-PAGE, transferred to nitrocellulose membranes and probed with antibodies recognizing total NOTCH1 (Cell Signaling), γ-secretase-cleaved NOTCH1 (NICD, Cell Signaling), or beta-actin (Santa Cruz). The signal was detected by chemiluminescence using Immun-Star Western C reagents (Bio-Rad).
Notch fusion alleles provide a target for therapeutic intervention. The three characterized Notch fusions represent two functional classes. […] Each of the three cell lines was treated with the γ-secretase inhibitor DAPT 31, and luciferase activity was measured in cell lysates 24 hours later. […] A panel of six breast cell lines were treated with DAPT at 0, 0.3, 1, and 3 μM, and cell proliferation was measured using a WST-1 assay over a six day time course.

Notch signaling pathway = assay: Notch reporter luciferase assay after DAPT treatment; assay type: cell-based, human; conditions: lysates 24 hours after DAPT
Description: Breast cancer cells were seeded into 24-well dishes in triplicate and allowed to attach overnight. Cells were then infected with a Notch-reporter construct Lenti-RBPJ-firefly luciferase together with a Lenti-CMV-Renilla luciferase control (SABiosciences/QIAGEN). The two lentiviral stocks were mixed at a ratio of 50 Notch reporters to 1 CMV control and a single mixture was used to infect all recipient cell lines at a MOI of 100. Following incubation for 48 hours, cell lysates were prepared and measured for Notch activity using Promega Dual Luciferase reagents and Passive Lysis Buffer. Firefly luciferase levels were normalized using corresponding Renilla luciferase levels for each cell line. To confirm that Notch pathways are activated in the index cell lines through Notch gene rearrangements, the activated NOTCH1 and NOTCH2 alleles were cloned from HCC1599, HCC2218, and HCC1187 into a pcDNA3.1 vector. These expression constructs, pcDNA3.1-1599-NOTCH1, pcDNA3.1-2218-NOTCH1, and pcDNA3.1-1187-NOTCH2 and positive control NOTCH1-NICD, were individually transfected into 293T cells along with the pGL4-RBPJ-4X reporter plasmid and pTKRenilla luciferase control plasmid. Cells were harvested for luciferase activity assays 24 hours after transfection and assayed as above.
Notch fusion alleles provide a target for therapeutic intervention. The three characterized Notch fusions represent two functional classes. The first class, exemplified by the HCC2218 and HCC1599 fusions, produces a protein similar to that produced by the ADAM17/TACE catalyzed S2 cleavage, which occurs during ligand activation of the Notch pathway. The second class, exemplified by the HCC1187 fusion, produces a protein similar to the NICD produced after cleavage at S3 by γ-secretase. […] Each of the three cell lines was treated with the γ-secretase inhibitor DAPT 31, and luciferase activity was measured in cell lysates 24 hours later. […] A panel of six breast cell lines were treated with DAPT at 0, 0.3, 1, and 3 μM, and cell proliferation was measured using a WST-1 assay over a six day time course.

[3] = system: Notch target genes CCND1, MYC, and HEY1; assay: Expression of Notch target genes after DAPT treatment; assay type: cell-based, human; conditions: 24-hour time course, cell lines with γ-secretase dependent Notch fusions

Description for HCC1599 xenograft: Four week-old female SCID C.B17 mice were procured from a breeding colony at University of Michigan. […] Mice were anesthetized using a cocktail of xylazine (80 mg/kg IP) and ketamine (10 mg/kg IP) for chemical restraint. MAST2 shRNA or scrambled shRNA knockdown MDA-MB-468 breast cancer cells (4 million) or NOTCH1 fusion allele positive HCC1599 breast cancer cell line (5 million) were resuspended in 100 ul of 1×PBA with 20% Matrigel (BD Biosciences) and implanted into right and left abdominal-inguinal mammary fat. Ten mice were included in each group. Two weeks after tumor implantation, HCC1599 xenograted mice were treated with γ-secretase inhibitor (DAPT) dissolved in 5% ethanol in corn oil (IP). Mice in control group also received 5% ethanol in corn oil as vehicle control. Tumor growth was recorded weekly by using digital calipers and tumor volumes were calculated using the formula (R/6) (L×W2), where L=length of tumor and W=width.
This was tested further by establishing a xenograft tumor model of HCC1599 in immunodeficient mice.

C[C@H](NC(=O)Cc1cc(F)cc(F)c1)C(=O)N[C@H](C(=O)OC(C)(C)C)c1ccccc1 [DAPT, N—[N-(3,5-difluorophenacetyl)-L-alanyl]-S-phenylglycine t-butyl ester]
tumor volume (HCC1599 xenograft; HCC1599 xenograft in immunodeficient mice, DAPT IP, versus untreated controls): significantly reduced | overall body weight (HCC1599 xenograft; mouse, in vivo): No effect | cell proliferation (HCC1599 cells): dramatic reduction in proliferation | cell proliferation (HCC2218 cells): significant reduction in proliferation | cell proliferation (HCC1187 cells): no reduction in proliferation | cell proliferation [1]: no reduction in proliferation | NICD levels (Western blot) ([2]; HCC1599 cells after DAPT treatment): nearly complete elimination | NICD levels (Western blot) ([2]; HCC2218 cells after DAPT treatment): dramatically reduced | Notch reporter activity (luciferase) (Notch signaling pathway; HCC1187 stable Notch reporter line): only slightly diminished | Notch reporter activity (luciferase) (Notch signaling pathway; HCC1599 stable Notch reporter line): dramatic reduction | Notch reporter activity (luciferase) (Notch signaling pathway; HCC2218 stable Notch reporter line): dramatic reduction | Notch target gene expression [3]: repressed
